The results in this text go back to paper PMC12054466 (RSC Advances, 2025).

The format of series [1] is binding.
The conditions of series [2]: rabbits, single oral dose 10 mg kg^−1, n = 5, mean; unit as in Table 4.

Read-outs that look alike come from different tables or passages of the source.

For the compound `CC(C)(C(=O)O)c1ccc(C(O)CCCN2CCC(C(O)(c3ccccc3)c3ccccc3)CC2)cc1` (stereo not shown) [fexofenadine, Fexofenadine], the “Ksv (Stern–Volmer quenching constant)” value is 1.36 10^6 M^−1 in series [1] (298 K (25 °C)), 1.09 10^6 M^−1 in series [1] (303 K) and 0.95 10^6 M^−1 in series [1] (308 K (35 °C)). In addition, the λz in series [2] turned out to be 0.06 h.
